Read-outs that look alike come from different tables or passages of the source.
Target: phosphorylated active hERK2 enzyme (Homo sapiens (Human), UniProt P28482)
Assay: Active Human ERK2 (hERK2) Activity Assay (IMAP-FP)
Type: biochemical
Conditions: 10 point titration, read-out: AERK2 IC50
Method in brief: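 IMAP fluorescence-polarization kinase assay: 0.5 nM activated hERK2 with 900 nM unlabeled plus 80 nM labeled peptide and 30 μM ATP, reacted 60 min. Quenched with IMAP beads in binding buffer with 24 mM NaCl; FP read after 60 min equilibration.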

[1] = Table 6, 0.5 nM hERK2, 30 μM ATP
[2] = Table 5, 0.5 nM hERK2, 30 μM ATP

Sequence of phosphorylated active hERK2 enzyme (P28482 whole entry): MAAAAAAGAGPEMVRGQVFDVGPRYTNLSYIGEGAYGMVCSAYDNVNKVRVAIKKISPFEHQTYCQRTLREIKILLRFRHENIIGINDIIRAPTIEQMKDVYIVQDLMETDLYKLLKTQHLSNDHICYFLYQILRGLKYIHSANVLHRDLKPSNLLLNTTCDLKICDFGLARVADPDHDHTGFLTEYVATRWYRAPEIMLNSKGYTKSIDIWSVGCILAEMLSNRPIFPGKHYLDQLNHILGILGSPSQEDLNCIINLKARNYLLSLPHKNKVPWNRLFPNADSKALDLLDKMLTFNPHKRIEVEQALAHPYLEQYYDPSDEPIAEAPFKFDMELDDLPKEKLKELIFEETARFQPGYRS

| SMILES | IC50 [1] | IC50 [2] |
| --- | --- | --- |
| C[C@@H](NC(=O)Nc1cc2[nH]nc(N3CCc4scnc4C3)c2cn1)c1ccc(F)cc1 [Example 63, 1-[3-(6,7-dihydro[1,3]thiazolo-[4,5-c]pyridin-5(4H)-yl)-1H-pyrazolo[4,3-c]pyridin-6-yl]-3-[(1R)-1-(4-fluorophenyl)ethyl]-urea] | 5.8 nM | – |
| CCNc1n[nH]c2cc(NC(=O)N[C@H](CSC)c3ccccc3)ncc12 [Example 358, 1-[3-(ethylamino)-1H-pyrazolo[4,3-c]pyridin-6-yl]-3-[(1S)-2-(methylsulfanyl)-1-phenylethyl]urea] | 0.8 nM | – |
| C[C@@H](NC(=O)Nc1cc2[nH]nc(NCC(=O)N(C)C)c2cn1)c1ccccc1 [Example 347, N,N-dimethyl-N~2~-[6-({[(1R)-1-phenylethyl]-carbamoyl}-amino)-1H-pyrazolo[4,3-c]-pyridin-3-yl]-glycinamide] | 18.3 nM | – |
| C[C@@H](NC(=O)Nc1cc2[nH]nc(NC3CCSC3)c2cn1)c1ccccc1 (stereo partly drawn) [Example 359, 1-[(1R)-1-phenylethyl]-3-[3-(tetrahydrothiophen-3-ylamino)-1H-pyrazolo[4,3-c]-pyridin-6-yl]urea] | 1.2 nM | – |
| CC(Nc1n[nH]c2cc(NC(=O)N[C@H](C)c3ccccc3)ncc12)C(F)(F)F (stereo partly drawn) [Example 418, 1-[(1R)-1-phenylethyl]-3-{3-[(2,2,2-trifluoro-1-methylethyl)amino]-1H-pyrazolo[4,3-c]pyridin-6-yl}urea] | 3.2 nM | – |
| COC[C@H](NC(=O)Nc1ncc2c(NC(C)C)n[nH]c2c1F)c1ccccc1 [Example 323, 1-{7-fluoro-3-[(1-methylethyl)amino]-1H-pyrazolo[4,3-c]pyridin-6-yl}-3-[(1R)-2-methoxy-1-phenylethyl]urea] | 4.1 nM | – |
| C[C@@H](NC(=O)Nc1cc2[nH]nc(N3CC(O)C3)c2cn1)c1ccccc1 [Example 79, 1-[3-(3-hydroxy-azetidin-1-yl)-1H-pyrazolo[4,3-c]-pyridin-6-yl]-3-[(1R)-1-phenylethyl]urea] | 9.7 nM | – |
| C[C@@H](NC(=O)Nc1cc2[nH]nc(NC(=O)OCc3ccccc3)c2cn1)c1ccccc1 [Example 225, benzyl [6-({[(1R)-1-phenylethyl]-carbamoyl}amino)-1H-pyrazolo[4,3-c]pyridin-3-yl]-carbamate] | 39.8 nM | – |
| CC(C)(O)[C@@H](NC(=O)Nc1cc2[nH]nc(N3CC4CCC(C3)O4)c2cn1)c1ccccc1 [Example 442, 1-[(1S)-2-hydroxy-2-methyl-1-phenylpropyl]-3-[3-(8-oxa-3-azabicyclo[3.2.1]-oct-3-yl)-1H-pyrazolo[4,3-c]-pyridin-6-yl]urea] | 0.5 nM | – |
| C[C@@H](NC(=O)Nc1cc2[nH]nc(NC(=O)N3CC(F)(F)C3)c2cn1)c1ccc(F)cc1 [Example 128, 3,3-difluoro-N-[6-({[(1R)-1-(4-fluorophenyl)ethyl]carbamoyl}amino)-1H-pyrazolo[4,3-c]pyridin-3-yl]-azetidine-1-carboxamide] | 3.4 nM | – |
| CNc1n[nH]c2cc(NC(=O)N[C@H](C)c3ccccc3)ncc12 [Example 3, 1-[3-(methylamino)-1H-pyrazolo[4,3-c]pyridin-6-yl]-3-[(1R)-1-phenylethyl]urea] | – | 4.87 nM |
| COC[C@@H](NC(=O)Nc1cc2[nH]nc(Nc3ccccc3F)c2cn1)c1ccccc1 [Example 384, 1-{3-[(2-fluoro-phenyl)amino]-1H-pyrazolo[4,3-c]-pyridin-6-yl}-3-[(1S)-2-methoxy-1-phenylethyl]urea] | 9.4 nM | – |
| COC[C@@H](NC(=O)Nc1cc2[nH]nc(Nc3cnn(C)c3)c2cn1)c1ccccc1 [Example 370, 1-[(1S)-2-methoxy-1-phenylethyl]-3-{3-[(1-methyl-1H-pyrazol-4-yl)-amino]-1H-pyrazolo[4,3-c]-pyridin-6-yl}urea] | 19.7 nM | – |
| CC(=O)Nc1n[nH]c2cc(NC(=O)N[C@@H](c3ccc(F)cc3)C(C)(C)O)ncc12 [Example 395, N-[6-({[(1S)-1-(4-fluorophenyl)-2-hydroxy-2-methylpropyl]-carbamoyl}amino)-1H-pyrazolo[4,3-c]-pyridin-3-yl]-acetamide] | 0.6 nM | – |
| CCNc1n[nH]c2cc(NC(=O)NCc3ncccc3F)ncc12 [Example 279, 1-[3-(ethylamino)-1H-pyrazolo[4,3-c]pyridin-6-yl]-3-[(3-fluoropyridin-2-yl)methyl]urea] | 63.4 nM | – |
| C[C@@H](NC(=O)Nc1cc2[nH]nc(Nc3ccc(C#N)nc3)c2cn1)c1ccccc1 [Example 381, 1-{3-[(6-cyanopyridin-3-yl)amino]-1H-pyrazolo[4,3-c]-pyridin-6-yl}-3-[(1R)-1-phenylethyl]urea] | 367 nM | – |
| C[C@@H](NC(=O)Nc1cc2[nH]nc(N)c2cn1)c1cccc(F)c1 [Example 270, 1-(3-amino-1H-pyrazolo[4,3-c]pyridin-6-yl)-3-[(1R)-1-(3-fluorophenyl)ethyl]urea] | 3.2 nM | – |
| CC(=O)Nc1n[nH]c2cc(NC(=O)N[C@H](COC(F)F)c3ccccc3)ncc12 [Example 364, N-[6-({[(1S)-2-(difluoromethoxy)-1-phenylethyl]-carbamoyl}amino)-1H-pyrazolo[4,3-c]pyridin-3-yl]-acetamide] | 0.3 nM | – |

| SMILES | IC50 [1] | IC50 [2] |
| --- | --- | --- |
| CCNc1n[nH]c2cc(NC(=O)N[C@@H]3CN(C)C[C@H]3c3ccccc3)ncc12 [Example 253, 1-[3-(ethylamino)-1H-pyrazolo[4,3-c]pyridin-6-yl]-3-[(3S,4R)-1-methyl-4-phenylpyrrolidin-3-yl]urea] | 1 nM | – |
| Nc1n[nH]c2c(F)c(NC(=O)N[C@H](COC(F)F)c3ccccc3)ncc12 [Example 362, 1-(3-amino-7-fluoro-1H-pyrazolo[4,3-c]-pyridin-6-yl)-3-[(1S)-2-(difluoromethoxy)-1-phenylethyl]urea] | 1.3 nM | – |
| CC(C)N1CCc2nc(NC(=O)N[C@H](C)c3ccccc3)cc3[nH]nc1c23 [Example 142, (R)-1-(3-isopropyl-1,3,4,5-tetrahydropyrazolo[3,4,5-de][1,6]naphthyridin-7-yl)-3-(1-phenylethyl)urea] | 1.2 nM | – |
| CCNc1n[nH]c2cc(NC(=O)N[C@H](C)c3ccccc3)nc(COC)c12 [Example 71, (R)-1-(3-(ethylamino)-4-(methoxymethyl)-1H-pyrazolo[4,3-c]pyridin-6-yl)-3-(1-phenylethyl)urea] | 4.4 nM | – |
| COC[C@@H](NC(=O)Nc1cc2[nH]nc(N(CC3CCC3)CC3CCC3)c2cn1)c1ccccc1 [Example 157, 1-{3-[bis(cyclobutyl-methyl)amino]-1H-pyrazolo[4,3-c]pyridin-6-yl}-3-[(1S)-2-methoxy-1-phenylethyl]urea] | 93.2 nM | – |
| C[C@@H](NC(=O)Nc1cc2[nH]nc(NCc3cccnc3)c2cn1)c1ccccc1 [Example 316, (R)-1-(1-phenylethyl)-3-(3-((pyridin-3-ylmethyl)amino)-1H-pyrazolo[4,3-c]pyridin-6-yl)urea] | 0.7 nM | – |
| CC(Nc1n[nH]c2cc(NC(=O)N[C@H](C)c3ccccc3)ncc12)C(F)(F)F (stereo partly drawn) [Example 407, 1-[(1R)-1-phenylethyl]-3-{3-[(2,2,2-trifluoro-1-methylethyl)amino]-1H-pyrazolo[4,3-c]pyridin-6-yl}urea] | 2.4 nM | – |
| CCNc1n[nH]c2cc(NC(=O)NCc3cccnc3OCC)ncc12 [Example 238, 1-[(2-ethoxy-pyridin-3-yl)-methyl]-3-[3-(ethylamino)-1H-pyrazolo[4,3-c]pyridin-6-yl]urea] | 9.6 nM | – |
| C[C@@H](NC(=O)Nc1cc2[nH]nc(NC(=O)Cc3ccc(F)cc3)c2cn1)c1ccccc1 [Example 206, 2-(4-fluorophenyl)-N-[6-({[(1R)-1-phenylethyl]-carbamoyl}amino)-1H-pyrazolo[4,3-c]pyridin-3-yl]-acetamide] | 0.5 nM | – |
| C[C@@H](NC(=O)Nc1cc2[nH]nc(NS(=O)(=O)CC3CC3)c2cn1)c1ccccc1 [Example 55, 1-cyclopropyl-N-[6-({[(1R)-1-phenylethyl]carbamoyl}amino)-1H-pyrazolo[4,3-c]pyridin-3-yl]methanesulfonamide] | – | 88.8 nM |
| C[C@@H](NC(=O)Nc1cc2[nH]nc(N(CC3CC3)CC3CC3)c2cn1)c1ccccc1 [Example 160, 1-{3-[bis(cyclopropyl-methyl)amino]-1H-pyrazolo[4,3-c]-pyridin-6-yl}-3-[(1R)-1-phenylethyl]urea] | 279 nM | – |
| C[C@@H](NC(=O)Nc1cc2[nH]nc(NC(=O)CC3CCCC3)c2cn1)c1ccccc1 [Example 210, 2-cyclopentyl-N-[6-({[(1R)-1-phenylethyl]-carbamoyl}amino)-1H-pyrazolo[4,3-c]pyridin-3-yl]-acetamide] | 2.8 nM | – |
| CC(C)(O)[C@@H](NC(=O)Nc1cc2[nH]nc(NC(=O)OCC(F)F)c2cn1)c1ccc(F)cc1 [Example 406, 2,2-difluoroethyl [6-({[(1S)-1-(4-fluorophenyl)-2-hydroxy-2-methyl-propyl]carbamoyl}amino)-1H-pyrazolo[4,3-c]-pyridin-3-yl]-carbamate] | 1.5 nM | – |
| COC[C@@H](NC(=O)Nc1cc2[nH]nc(N3CC(OC)C3)c2cn1)c1ccccc1 [Example 6, 1-[3-(3-methoxyazetidin-1-yl)-1H-pyrazolo[4,3-c]pyridin-6-yl]-3-[(1S)-2-methoxy-1-phenylethyl]urea] | – | 2300 nM |
| COC(=O)N[C@H](C(=O)Nc1n[nH]c2cc(NC(=O)N[C@H](C)c3ccc(F)cc3)ncc12)C(C)C [Example 66, methyl [(1S)-1-{[6-({[(1R)-1-(4-fluoro-phenyl)ethyl]-carbamoyl}-amino)-1H-pyrazolo[4,3-c]-pyridin-3-yl]-carbamoyl}-2-methylpropyl]-carbamate] | 31.6 nM | – |
| C[C@@H](NC(=O)Nc1cc2[nH]nc(NC(=O)N3C[C@H]4COC[C@H]4C3)c2cn1)c1ccc(F)cc1 [Example 458, (3aR,6aS)-N-(6-(3-((R)-1-(4-fluorophenyl)ethyl)ureido)-1H-pyrazolo[4,3-c]pyridin-3-yl)tetrahydro-1H-furo[3,4-c]pyrrole-5(3H)-carboxamide] | 14.3 nM | – |
| COCCNC(=O)Nc1cc2[nH]nc(N3CCOCC3)c2cn1 [Example 20, 1-(2-methoxyethyl)-3-(3-morpholin-4-yl-1H-pyrazolo[4,3-c]pyridin-6-yl)urea] | – | 13.6 nM |

Reference: patent US9233979B2, “Compounds that are ERK inhibitors” (Merck Sharp & Dohme Corp., priority 2012, dated 2016)
